Reference: ChEMBL document CHEMBL1201862, “PubChem BioAssay data set” (2004)
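How tested: cells in 96-well plates exposed to compound for 48 hours at five concentrations. GI50 is the concentration that inhibits growth by half.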 The source made the active and inactive calls. No stated cut-off is given here; in the data, active = GI50 up to about 1.1 µM and inactive = higher.

Assays:
Assay in all cases: DTP human tumour cell line panel, 48 h
UACC-257 = test system: UACC-257
A498 = test system: A498
RXF 393 = test system: RXF 393
HT-29 = test system: HT-29
OVCAR-5 = test system: OVCAR-5
SK-OV-3 = test system: SK-OV-3
SW-620 = test system: SW-620
NCI-H460 = test system: NCI-H460
HCC 2998 = test system: HCC 2998
K562 = test system: K562
SNB-75 = test system: SNB-75
KM12 = test system: KM12
UO-31 = test system: UO-31
NCI-H522 = test system: NCI-H522
U-251 = test system: U-251
786-0 = test system: 786-0
TK-10 = test system: TK-10
M14 = test system: M14

| Compound | GI50 (UACC-257) | GI50 (A498) | GI50 (RXF 393) | GI50 (HT-29) | GI50 (OVCAR-5) | GI50 (SK-OV-3) | GI50 (SW-620) | GI50 (NCI-H460) | GI50 (HCC 2998) | GI50 (K562) | GI50 (SNB-75) | GI50 (KM12) | GI50 (UO-31) | GI50 (NCI-H522) | GI50 (U-251) | GI50 (786-0) | GI50 (TK-10) | GI50 (M14) |
| --- | --- | --- | --- | --- | --- | --- | --- | --- | --- | --- | --- | --- | --- | --- | --- | --- | --- | --- |
| COc1cc(/C=C/C(=O)Oc2ccc(NC(C)=O)cc2)ccc1C(=O)O/C=C/c1ccccc1 | > 100 µM (inactive) | > 100 µM (inactive) | > 100 µM (inactive) | > 100 µM (inactive) | > 100 µM (inactive) | > 100 µM (inactive) | > 100 µM (inactive) | > 100 µM (inactive) | > 100 µM (inactive) | > 31.6 µM (inactive) | > 100 µM (inactive) | > 100 µM (inactive) | 76.4 µM (inactive) | > 100 µM (inactive) | > 100 µM (inactive) | – | – | – |
| Cc1cc(N(CCC#N)CCC#N)ccc1/N=N/c1ccc(S(N)(=O)=O)cc1 | > 100 µM (inactive) | > 100 µM (inactive) | > 100 µM (inactive) | > 100 µM (inactive) | > 100 µM (inactive) | > 100 µM (inactive) | > 100 µM (inactive) | – | > 100 µM (inactive) | > 100 µM (inactive) | > 100 µM (inactive) | > 100 µM (inactive) | 85.5 µM (inactive) | > 100 µM (inactive) | > 100 µM (inactive) | > 100 µM (inactive) | > 100 µM (inactive) | > 100 µM (inactive) |
| CCCCCCCCCCCCCCCCCC(=O)OCC(CN(C)CCN(C)C)OC(=O)CCCCCCCCCCCCCCCCC (configuration not stated) | > 100 µM (inactive) | > 100 µM (inactive) | > 100 µM (inactive) | 40.2 µM (inactive) | > 100 µM (inactive) | > 100 µM (inactive) | > 100 µM (inactive) | > 100 µM (inactive) | 75.9 µM (inactive) | 15.8 µM (inactive) | 98.2 µM (inactive) | 88.5 µM (inactive) | > 100 µM (inactive) | > 100 µM (inactive) | > 100 µM (inactive) | > 100 µM (inactive) | > 100 µM (inactive) | > 100 µM (inactive) |
| CCCCCC(C[N+]1(C)CCOCC1)C(=O)/C=C/c1ccccc1 (configuration not stated) | 13.4 µM (inactive) | 15.1 µM (inactive) | 14.4 µM (inactive) | 5.31 µM (inactive) | 17.4 µM (inactive) | 46.5 µM (inactive) | 2.62 µM (inactive) | 16.4 µM (inactive) | 18.2 µM (inactive) | 3.34 µM (inactive) | 7.33 µM (inactive) | 2.8 µM (inactive) | 16.1 µM (inactive) | 3.03 µM (inactive) | 7.67 µM (inactive) | 2 µM (inactive) | 20.3 µM (inactive) | 11.1 µM (inactive) |
| CCOC(=O)C1=C(NC)OC/C1=N\NC(=O)c1ccccc1O | 1.49 µM (inactive) | > 100 µM (inactive) | 16.7 µM (inactive) | – | 48.3 µM (inactive) | > 100 µM (inactive) | 31.8 µM (inactive) | 28.2 µM (inactive) | 25.1 µM (inactive) | 18.6 µM (inactive) | 69.3 µM (inactive) | 53.2 µM (inactive) | 4.83 µM (inactive) | 9.31 µM (inactive) | 19.3 µM (inactive) | 33.4 µM (inactive) | > 100 µM (inactive) | 22.5 µM (inactive) |
| COc1ccc(OC(=O)CC2Cc3cc(OC)c(OC)c(OC)c3-c3ccc(SC)c(=O)cc32)cc1 (configuration not stated) | 0.273 µM (active) | 0.0332 µM (active) | 0.115 µM (active) | 0.342 µM (active) | – | 0.0277 µM (active) | 0.0783 µM (active) | 0.245 µM (active) | 0.0568 µM (active) | 0.0805 µM (active) | 2.52 µM (inactive) | 0.107 µM (active) | 0.792 µM (active) | 0.2 µM (active) | 0.224 µM (active) | 0.0551 µM (active) | 29.7 µM (inactive) | 0.34 µM (active) |
| CCOC(=O)N1CCc2cc(OC)c(OC)cc2/C1=C/c1ccc(OC)c(OC)c1 | 37.2 µM (inactive) | 56.4 µM (inactive) | 37.9 µM (inactive) | 28.4 µM (inactive) | 94 µM (inactive) | > 100 µM (inactive) | 46.2 µM (inactive) | – | 42.6 µM (inactive) | 35.5 µM (inactive) | 37.9 µM (inactive) | 45.3 µM (inactive) | 27.8 µM (inactive) | 40.1 µM (inactive) | 44.5 µM (inactive) | 42.8 µM (inactive) | > 100 µM (inactive) | 82.8 µM (inactive) |
| CCOc1ccccc1C=C1c2ccccc2C(=O)c2ccccc21 | 4.21 µM (inactive) | 6.75 µM (inactive) | 2.04 µM (inactive) | – | 12.8 µM (inactive) | 3.03 µM (inactive) | 3.72 µM (inactive) | 4.15 µM (inactive) | 3.63 µM (inactive) | 3.32 µM (inactive) | 2.17 µM (inactive) | 0.673 µM (active) | 2.59 µM (inactive) | 2.36 µM (inactive) | 4.37 µM (inactive) | 3.38 µM (inactive) | 4.56 µM (inactive) | 5.83 µM (inactive) |
| CCOC(=O)Cc1ccc2c(c1O)C(=O)c1c(ccc(CC(=O)OCC)c1O)C2=O | > 100 µM (inactive) | > 100 µM (inactive) | 33 µM (inactive) | > 100 µM (inactive) | > 100 µM (inactive) | > 100 µM (inactive) | > 100 µM (inactive) | – | > 100 µM (inactive) | > 100 µM (inactive) | > 100 µM (inactive) | > 100 µM (inactive) | > 100 µM (inactive) | > 100 µM (inactive) | 83.8 µM (inactive) | > 100 µM (inactive) | 31.9 µM (inactive) | > 100 µM (inactive) |
| COc1ccccc1NC(=O)CC(=O)N1N=C(C)C(/N=N/c2ccc(S(N)(=O)=O)cc2)C1=O (configuration not stated) | > 100 µM (inactive) | > 100 µM (inactive) | > 100 µM (inactive) | > 100 µM (inactive) | > 100 µM (inactive) | > 100 µM (inactive) | > 100 µM (inactive) | > 100 µM (inactive) | > 100 µM (inactive) | – | > 100 µM (inactive) | > 100 µM (inactive) | > 100 µM (inactive) | > 100 µM (inactive) | > 100 µM (inactive) | > 100 µM (inactive) | > 100 µM (inactive) | > 100 µM (inactive) |
| O=C(Nc1cc([N+](=O)[O-])cc([N+](=O)[O-])c1)OC1C2CCC1C1OC1C2 (configuration not stated) | 32.4 µM (inactive) | > 50 µM (inactive) | > 50 µM (inactive) | – | > 50 µM (inactive) | > 50 µM (inactive) | > 50 µM (inactive) | > 50 µM (inactive) | > 50 µM (inactive) | > 50 µM (inactive) | 23.7 µM (inactive) | 29.1 µM (inactive) | 19.9 µM (inactive) | 29.1 µM (inactive) | > 50 µM (inactive) | > 50 µM (inactive) | > 50 µM (inactive) | > 50 µM (inactive) |
| CC(=O)OC1CCC2(C)C(CCC3C2CCC2(C)C(c4ccc(=O)oc4)C(OC(C)=O)CC32O)C1 (configuration not stated) | 0.023 µM (active) | 0.0156 µM (active) | 0.0125 µM (active) | 0.0263 µM (active) | 0.0397 µM (active) | 0.0292 µM (active) | 0.0148 µM (active) | 0.0147 µM (active) | 0.0269 µM (active) | 0.0161 µM (active) | 0.0183 µM (active) | 0.0172 µM (active) | 0.0156 µM (active) | 0.016 µM (active) | 0.0184 µM (active) | – | – | – |
